Reference: the NIST ThermoML archive (doi:10.1016/j.jct.2016.03.021)
Numbers after ± are expanded uncertainties.

Assay: wn = mass fraction of the nth substance listed
Details: Liquid; for mass density: Vibrating tube method

NCCO [2-aminoethan-1-ol] + O
viscosity [mPa·s]
Details	w1 = 0.1	w1 = 0.1001	w1 = 0.2	w1 = 0.3	w1 = 0.3005	w1 = 0.4	w1 = 0.4001
313.15 K, 5000 kPa, Falling or rolling sphere viscometry	–	–	–	–	–	–	2.306 ± 0.071
313.15 K, 10000 kPa, Falling or rolling sphere viscometry	–	0.892 ± 0.028	1.182 ± 0.036	–	1.649 ± 0.051	–	2.319 ± 0.072
313.15 K, 20000 kPa, Falling or rolling sphere viscometry	–	0.896 ± 0.028	1.19 ± 0.037	–	1.668 ± 0.051	–	2.352 ± 0.073
313.15 K, 30000 kPa, Falling or rolling sphere viscometry	–	0.899 ± 0.028	1.197 ± 0.037	–	1.686 ± 0.052	–	2.384 ± 0.074
313.15 K, 40000 kPa, Falling or rolling sphere viscometry	–	0.902 ± 0.028	1.205 ± 0.037	–	1.702 ± 0.053	–	2.416 ± 0.075
313.15 K, 60000 kPa, Falling or rolling sphere viscometry	–	0.91 ± 0.028	1.219 ± 0.038	–	1.735 ± 0.054	–	2.479 ± 0.077
313.15 K, 80000 kPa, Falling or rolling sphere viscometry	–	0.918 ± 0.028	1.232 ± 0.038	–	1.77 ± 0.055	–	2.544 ± 0.079
313.15 K, 100000 kPa, Falling or rolling sphere viscometry	–	0.927 ± 0.029	1.249 ± 0.039	–	1.804 ± 0.056	–	2.609 ± 0.081
313.15 K, 120000 kPa, Falling or rolling sphere viscometry	–	0.936 ± 0.029	1.263 ± 0.039	–	1.846 ± 0.057	–	2.675 ± 0.083
333.15 K, 93 kPa, Concentric cylinders viscometry	0.6263 ± 0.014	–	0.7832 ± 0.017	1.084 ± 0.023	–	1.405 ± 0.029	–
333.15 K, 100 kPa, Falling or rolling sphere viscometry	–	0.615 ± 0.019	0.78 ± 0.024	–	1.061 ± 0.033	–	1.389 ± 0.043
333.15 K, 101 kPa, Falling or rolling sphere viscometry	0.615 ± 0.019	–	0.78 ± 0.024	1.061 ± 0.033	–	1.389 ± 0.043	–
333.15 K, 5000 kPa, Falling or rolling sphere viscometry	–	0.614 ± 0.019	0.788 ± 0.024	–	1.067 ± 0.033	–	1.401 ± 0.043
333.15 K, 10000 kPa, Falling or rolling sphere viscometry	–	0.617 ± 0.019	0.792 ± 0.024	–	1.075 ± 0.033	–	1.41 ± 0.044
333.15 K, 20000 kPa, Falling or rolling sphere viscometry	–	0.622 ± 0.019	0.799 ± 0.025	–	1.089 ± 0.034	–	1.434 ± 0.044
333.15 K, 30000 kPa, Falling or rolling sphere viscometry	–	0.625 ± 0.019	0.807 ± 0.025	–	1.103 ± 0.034	–	1.453 ± 0.045

mass density [kg/m3]
Details	w1 = 0.1001	w1 = 0.2	w1 = 0.3005	w1 = 0.4
313.15 K, 5000 kPa	997.9 ± 0.7	1001 ± 0.7	1005.1 ± 0.7	1009.3 ± 0.7
313.15 K, 10000 kPa	1000 ± 0.7	1002.9 ± 0.7	1007 ± 0.7	1011.2 ± 0.7
313.15 K, 15000 kPa	1002 ± 0.7	1004.8 ± 0.7	1008.8 ± 0.7	1012.9 ± 0.7
313.15 K, 20000 kPa	1004 ± 0.7	1006.7 ± 0.7	1010.6 ± 0.7	1014.7 ± 0.7
313.15 K, 30000 kPa	1008.1 ± 0.7	1010.5 ± 0.7	1014.3 ± 0.7	1018.2 ± 0.7
313.15 K, 40000 kPa	1012.1 ± 0.7	1014.3 ± 0.7	1017.9 ± 0.7	1021.7 ± 0.7
313.15 K, 50000 kPa	1015.9 ± 0.7	1017.9 ± 0.7	1021.3 ± 0.7	1025.1 ± 0.7
313.15 K, 60000 kPa	1019.8 ± 0.7	1021.5 ± 0.7	1024.8 ± 0.7	1028.4 ± 0.7
313.15 K, 70000 kPa	1023.4 ± 0.7	1025 ± 0.7	1028.2 ± 0.7	1031.7 ± 0.7
313.15 K, 80000 kPa	1027 ± 0.7	1028.5 ± 0.7	1031.4 ± 0.7	1034.8 ± 0.7
313.15 K, 90000 kPa	1030.6 ± 0.7	1031.8 ± 0.7	1034.5 ± 0.7	1037.8 ± 0.7
313.15 K, 100000 kPa	1034.2 ± 0.7	1035.1 ± 0.7	1037.9 ± 0.7	1041.1 ± 0.7
313.15 K, 110000 kPa	1037.6 ± 0.7	1038.4 ± 0.7	1041 ± 0.7	1044 ± 0.7
313.15 K, 120000 kPa	1041.1 ± 0.7	1041.8 ± 0.7	1044.1 ± 0.7	1047 ± 0.7
333.15 K, 100 kPa	986.3 ± 0.7	988.8 ± 0.7	992 ± 0.7	995.3 ± 0.7
333.15 K, 500 kPa	986.5 ± 0.7	988.9 ± 0.7	992.3 ± 0.7	995.6 ± 0.7
333.15 K, 1000 kPa	986.7 ± 0.7	989.1 ± 0.7	992.4 ± 0.7	995.8 ± 0.7
333.15 K, 2000 kPa	987.1 ± 0.7	989.5 ± 0.7	992.8 ± 0.7	996.2 ± 0.7
333.15 K, 5000 kPa	988.4 ± 0.7	990.7 ± 0.7	994 ± 0.7	997.3 ± 0.7
333.15 K, 10000 kPa	990.5 ± 0.7	992.7 ± 0.7	996 ± 0.7	999.3 ± 0.7
333.15 K, 15000 kPa	992.6 ± 0.7	994.7 ± 0.7	997.9 ± 0.7	1001.1 ± 0.7
333.15 K, 20000 kPa	994.6 ± 0.7	996.6 ± 0.7	999.7 ± 0.7	1003 ± 0.7
333.15 K, 30000 kPa	998.6 ± 0.7	1000.5 ± 0.7	–	–
